We go through 14 compounds from patent US20100173914A1, “PHARMACEUTICALS, COMPOSITIONS AND METHODS OF MAKING AND USING THE SAME” (priority 2007, published 2010).

The target in data set [1] is T1, human adenosine A2A receptors (Homo sapiens, UniProt P29274).
T1 construct: host or cells: HEK-293
Description: Adenosine receptor binding: binding affinities at hA2A receptors ([3H]CGS-21680 displacement). To be noted: for Ki: displacement of [3H]CGS-21680, HEK-293 cell membranes; for A2A/A1 selectivity ratio (Ki A2A/Ki A1): ratio of measured Ki values at hA2A and hA1. The text has this: Adenosine Receptor Binding: Binding Affinities at hA2A Receptors
The compounds were examined in an assay measuring in vitro binding to human adenosine A2A receptors by determining the displacement of the adenosine A2A receptor selective radioligand 4-[2-[[6-Amino-9-(N-ethyl-β-D-ribofuranuronamidosyl)-9H-purin-2-yl]amino]ethyl]benzenepropanoic acid hydrochloride ([^3H]CGS-21680) using standard techniques. See, for example, Jarvis et al., J Pharmacol Exp Ther., 251(3):888-93, which is incorporated by reference in its entirety.
Frozen HEK-293 cells were homogenized in 65 mL of 50 mM Tris HCl buffer (pH 7.5) containing 10 mM MgCl2, and 0.1 IU/mL adenosine deaminase per pellet using a Ultra-Turrax homogenizer. The resultant homogenate was kept for immediate use in the binding assay.
(§1) Binding assays were performed in a total volume of 250 μL, containing [^3H]-CGS21680 (20.0 nM), membranes and additional drugs. Total binding was determined using drug dilution buffer (50 mM Tris-HCl pH 7.5, 10 mM MgCl2, 5% DMSO). Non-specific binding was determined using 300 μM CHA. Following incubation for 90 minutes at 21° C., assays were terminated by rapid filtration with GF/B filters (presoaked in 0.1% (w/v) polyethylenimine) using a Canberra Packard filtermate 196, washed 3 times with ice-cold Tris-HCl (pH 7.4). Filters were left to dry overnight, and Microscint-0 scintillation fluid was then added to the filters. The filters were then left for at least 2 hours before the radioactivity was assessed using a Canberra Packard TopCount microplate scintillation counter.
To determine the free ligand concentration, three vials were counted with 25 μL of [^3H]CGS21680 containing 4 mL of Ultima-Gold MV scintillant on a Beckman LS6500 multi-purpose scintillation counter.
(§2) Data was analysed using a 4 parameter logistical equation and non-linear regression which yields affinity constants (pIC50), and slope parameters:
where E is the quantity of binding and [A] is the competitor concentration. The Ki is then determined using the Cheng-Prusoff equation: […]
On the technique in general: In a radioligand displacement assay an active substance lowers the binding of a labelled ligand.

The target in data set [2] is T2, human adenosine A1 receptors (Homo sapiens, UniProt P30542).
T2 construct: expressed in transfected cells; host or cells: CHO-K1
T2 sequence (P30542 1-326): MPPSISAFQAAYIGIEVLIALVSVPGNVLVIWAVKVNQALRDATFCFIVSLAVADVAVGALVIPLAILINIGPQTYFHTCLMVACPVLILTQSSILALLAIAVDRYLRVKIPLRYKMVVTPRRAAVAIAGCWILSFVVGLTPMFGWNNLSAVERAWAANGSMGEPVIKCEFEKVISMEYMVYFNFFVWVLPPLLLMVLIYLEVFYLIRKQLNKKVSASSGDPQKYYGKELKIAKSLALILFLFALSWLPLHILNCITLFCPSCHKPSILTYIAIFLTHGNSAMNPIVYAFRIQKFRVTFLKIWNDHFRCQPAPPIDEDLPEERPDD
The experiment in a line: Adenosine receptor binding: binding affinities at hA1 receptors ([3H]DPCPX displacement). To be noted: displacement of [3H]DPCPX, membranes of CHO-K1 cells transfected with human A1.
Description: Adenosine Receptor Binding: Binding Affinities at hA1 Receptors
The compounds were examined in an assay measuring in vitro binding to human adenosine A1 receptors by determining the displacement of the adenosine A1 receptor selective radioligand 8-Cyclopentyl-1,3-dipropylxanthine ([^3H]DPCPX) using standard techniques. See, for example, Lohse M J, et al., (1987), 8-Cyclopentyl-1,3-dipropylxanthine (DPCPX)—a selective high affinity antagonist radioligand for A1 adenosine receptors. Naunyn Schmiedebergs Arch Pharmacol., 336(2):204-10, which is incorporated by reference in its entirety.
as §1, with “Frozen CHO-K1 cells (transfected with a human adenosine A1 recepter expression vector) were homogenized in 130 mL of 50 mM Tris HCl buffer (pH 7.5) containing 10 mM MgCl2, and 0.1 IU/mL adenosine deaminase per pellet using a Ultra-Turrax homogeniser. The resultant homogenate was kept for immediate use in the binding. Binding” for “Binding”, “[^3H]-DPCPX (3.0” for “[^3H]-CGS21680 (20.0”, “pH:7.5,” for “pH 7.5,”, “N6-cyclohexyladenosine (CHA).” for “CHA.”
To determine the free ligand concentration, three vials were counted with 25 μL of [^3H]DPCPX containing 4 mL of Ultima-Gold MV scintillant on a Beckman LS6500 multi-purpose scintillation counter.
as §2
where E is the quantity of binding and [A] is the competitor concentration. The K, is then determined using the Cheng-Prusoff equation: […]

For data set [3] the following is noted: cited from earlier work.
For data set [4] the following is noted: cited from earlier work. The source holds these as a separate data set.

T1 sequence (P29274 whole entry): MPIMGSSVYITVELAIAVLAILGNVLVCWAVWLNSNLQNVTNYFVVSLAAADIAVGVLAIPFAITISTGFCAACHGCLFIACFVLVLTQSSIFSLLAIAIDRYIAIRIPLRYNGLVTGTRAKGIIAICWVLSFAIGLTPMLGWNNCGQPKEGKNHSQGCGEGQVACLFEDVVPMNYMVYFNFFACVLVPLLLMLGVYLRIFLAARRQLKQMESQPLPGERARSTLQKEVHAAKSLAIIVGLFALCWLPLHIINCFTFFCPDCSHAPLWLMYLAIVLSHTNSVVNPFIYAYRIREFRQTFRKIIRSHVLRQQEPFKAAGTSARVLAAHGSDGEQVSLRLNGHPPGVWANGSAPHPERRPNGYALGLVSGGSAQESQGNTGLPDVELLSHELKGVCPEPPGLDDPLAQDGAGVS

By Ki is commonly meant a dissociation constant, usually derived from enzyme kinetics or from competition with a known ligand. The low end stands for tighter binding, the high end for weaker binding. Turning to `COc1cc(Cn2nnc3c(-c4cccs4)nc(N)nc32)ccc1NS(=O)(=O)O` [4-[(5-amino-7-(thiophen-2-yl)-3H-[1,2,3]triazolo[4,5-d]pyrimidin-3-yl)methyl]-2-methoxyphenylsulfamic acid], in data set [1], the inhibition constant Ki was in the range of 100 to 1000 nM and the “A2A/A1 selectivity ratio (Ki A2A/Ki A1)” value is given as “H (more than 20)”. This compound came in with an inhibition constant Ki in data set [2] of 1000 to 10000 nM.

As for `Cc1cc(Cn2nnc3c(-c4cccs4)nc(N)nc32)ccc1NS(=O)(=O)O` [4-[(5-amino-7-(thiophen-2-yl)-3H-[1,2,3]triazolo[4,5-d]pyrimidin-3-yl)methyl]-2-methylphenylsulfamic acid], the Ki in data set [1] is ≤ 100 nM; in data set [2], 100 to 1000 nM. Moreover, in data set [1], the “A2A/A1 selectivity ratio (Ki A2A/Ki A1)” value is on record as “H (more than 20)”.

As for `COc1cc(NS(=O)(=O)O)ccc1Cn1nnc2c(-c3cccs3)nc(N)nc21` [4-[(5-amino-7-(thiophen-2-yl)-3H-[1,2,3]triazolo[4,5-d]pyrimidin-3-yl)methyl]-3-methoxyphenylsulfamic acid], in data set [1], the inhibition constant Ki was in the range of 1000 to 10000 nM and the “A2A/A1 selectivity ratio (Ki A2A/Ki A1)” value was “F (5 to 10)”. In data set [2], the Ki is > 10000 nM.

For `Nc1nc(-c2cccs2)c2nnn(Cc3ccc(NS(=O)(=O)O)cc3)c2n1` [4-[(5-amino-7-(thiophen-2-yl)-3H-[1,2,3]triazolo[4,5-d]pyrimidin-3-yl)methyl]phenylsulfamic acid], the Ki in data set [1] lay in the range of 100 to 1000 nM; in data set [2] it was 1000 to 10000 nM. Further, the “A2A/A1 selectivity ratio (Ki A2A/Ki A1)” value in data set [1] is recorded as “G (10 to 20)”.

For `COc1cc(Cn2nnc3c(-c4ccccc4)nc(N)nc32)ccc1NS(=O)(=O)O` [4-[(5-amino-7-phenyl-3H-[1,2,3]triazolo[4,5-d]pyrimidin-3-yl)methyl]-2-methoxyphenylsulfamic acid], the inhibitory constant (Ki) in data set [1] was in the range of 100 to 1000 nM; in data set [2] it was 1000 to 10000 nM. Further, the “A2A/A1 selectivity ratio (Ki A2A/Ki A1)” value in data set [1] is “G (10 to 20)”.

For `Cc1cc(Cn2nnc3c(-c4ccccc4)nc(N)nc32)ccc1NS(=O)(=O)O` [4-[(5-amino-7-phenyl-3H-[1,2,3]triazolo[4,5-d]pyrimidin-3-yl)methyl]-2-methylphenylsulfamic acid], in data set [1], the Ki is ≤ 100 nM and the “A2A/A1 selectivity ratio (Ki A2A/Ki A1)” value is recorded as “H (more than 20)”. For the same compound, the Ki in data set [2] is 100 to 1000 nM.

For the compound `COc1cc(NS(=O)(=O)O)ccc1Cn1nnc2c(-c3ccccc3)nc(N)nc21` [4-[(5-amino-7-phenyl-3H-[1,2,3]triazolo[4,5-d]pyrimidin-3-yl)methyl]-3-methoxyphenylsulfamic acid], in data set [1], the Ki is 1000 to 10000 nM and the “A2A/A1 selectivity ratio (Ki A2A/Ki A1)” value was “F (5 to 10)”. Further, the Ki in data set [2] is > 10000 nM.

As for `COc1ccccc1-c1nc(N)nc2c1nnn2Cc1ccc(C)c(NS(=O)(=O)O)c1` [5-[(5-amino-7-(2-methoxyphenyl)-3H-[1,2,3]triazolo[4,5-d]pyrimidin-3-yl)methyl]-2-methylphenylsulfamic acid], in data set [1], the Ki was 1000 to 10000 nM and the “A2A/A1 selectivity ratio (Ki A2A/Ki A1)” value is recorded as “E (less than 5)”. The compound further displayed a Ki in data set [2] of 1000 to 10000 nM.

With `Cc1ccc(-c2nc(N)nc3c2nnn3Cc2ccc(C)c(NS(=O)(=O)O)c2)o1` [5-[(5-amino-7-(5-methylfuran-2-yl)-3H-[1,2,3]triazolo[4,5-d]pyrimidin-3-yl)methyl]-2-methylphenylsulfamic acid], the inhibition constant Ki in data set [1] is ≤ 100 nM; in data set [2], 100 to 1000 nM. Besides, in data set [1], the “A2A/A1 selectivity ratio (Ki A2A/Ki A1)” value is listed as “H (more than 20)”.

For `Cc1ccc(Cn2nnc3c(-c4ccco4)nc(N)nc32)cc1NS(=O)(=O)O` [5-[(5-amino-7-(furan-2-yl)-3H-[1,2,3]triazolo[4,5-d]pyrimidin-3-yl)methyl]-2-methylphenylsulfamic acid], the inhibition constant (Ki) is ≤ 100 nM in data set [1] and 100 to 1000 nM in data set [2]. The “A2A/A1 selectivity ratio (Ki A2A/Ki A1)” value in data set [1] is “H (more than 20)”.

Consider `Cc1ccc(Cn2nnc3c(-c4cccs4)nc(N)nc32)cc1NS(=O)(=O)O` [5-[(5-amino-7-(thiophen-2-yl)-3H-[1,2,3]triazolo[4,5-d]pyrimidin-3-yl)methyl]-2-methylphenylsulfamic acid], for which the results for the Ki in data set [1] and in data set [2] were ≤ 100 nM and 1000 to 10000 nM, respectively. In addition, the “A2A/A1 selectivity ratio (Ki A2A/Ki A1)” value in data set [1] is “H (more than 20)”.

Consider `Cc1ccc(Cn2nnc3c(-c4ccccc4)nc(N)nc32)cc1NS(=O)(=O)O` [5-[(5-amino-7-phenyl-3H-[1,2,3,]triazolo[4,5-d]pyrimidin-3-yl)methyl]-2-methylphenylsulfamic acid], for which the Ki in data set [1] is ≤ 100 nM; in data set [2], 100 to 1000 nM. Moreover, the “A2A/A1 selectivity ratio (Ki A2A/Ki A1)” value in data set [1] is recorded as “G (10 to 20)”.

Take `CCCn1c(=O)c2c(nc(/C=C/c3ccc(OC)c(OC)c3)n2C)n(CCC)c1=O` [KF 17837, E-8-(3,4-dimethoxystyryl)-1,3-dipropyl-7-methylxanthine]: in data set [3] (in vivo), the “anticataleptic effects of a subthreshold dose of L-DOPA plus benserazide” value was “potentiated”; the “catalepsy induced by haloperidol and reserpine” value is given as “reduced”. Besides, the “cataleptic responses induced by intracerebroventricular CGS 21680” value in data set [3] (oral administration) is recorded as “significantly ameliorated”.

For `Cn1c(=O)c2[nH]cnc2n(C)c1=O` [Theophylline, 1,3-dimethylxanthine], the serum theophylline levels in data set [4] (150 mg/day slow release oral, after one week, Parkinsonian patients) is 4.44 mg/L. For the same compound, the “mean objective disability scores” value in data set [4] (15 Parkinsonian patients, up to 12 weeks, 150 mg/day) is recorded as “significant improvements”. For the same compound, in data set [4] (of 15 Parkinsonian patients, up to 12 weeks, 150 mg/day), the “patients reporting moderate or marked subjective improvement” value is listed as 11.
